Assay results from the supplement of paper PMC6045584.
± gives the standard deviation of the averaged measurements.

Legend:
[1] = compound: T1, COCC[n+]1c2c(n(Cc3cnccn3)c1C)C(=O)c1ccccc1C2=O [YM155]; experiment: area under dose-response curve of surviving fraction (unscaled, Aref=0) (surviving fraction x log10(nM)); higher = more resistant; settings: exposure time: 5 days; dose range 0.5-1000 nM
Outline: (§1)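 Each tumour cell line was screened three times in 384-well plates, receiving eight inhibitor concentrations from 0.5 to 1000 nM for five days. CellTiter-Glo luminescence gave viability, normalised to DMSO-only wells. Using the drc R package, surviving fractions were fitted with 3-parameter logistic dose-response curves, and the unscaled activity area over log10 dose (Aref = 0) was taken as the area under the curve.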

[2] = compound: T2, C[C@]1(O)C[C@@H](c2nc(-c3ccc4ccc(-c5ccccc5)nc4c3)c3c(N)nccn32)C1 [OSI-906]; experiment: as above; settings: exposure time: 5 days; dose range 0.5-1000 nM
Outline: as §1

[3] = compound: CC(=O)c1c(C)c2cnc(Nc3ccc(N4CCNCC4)cn3)nc2n(C2CCCC2)c1=O; experiment: as above; settings: exposure time: 5 days; dose range 0.5-1000 nM
Outline: as §1

[4] = compound: T3, COc1cc2ncnc(Nc3ccc(F)c(Cl)c3)c2cc1OCCCN1CCOCC1 [GEFITINIB]; experiment: as above; settings: exposure time: 5 days; dose range 0.5-1000 nM
Outline: as §1

[5] = compound: T4, CC[C@@]1(O)C(=O)OCc2c1cc1n(c2=O)Cc2cc3ccccc3nc2-1 [CAMPTOTHECIN]; experiment: as above; settings: exposure time: 5 days; dose range 0.5-1000 nM
Outline: as §1

[6] = compound: T5, CC(=O)O[C@H]1C(=O)[C@@]2(C)[C@H]([C@H](OC(=O)c3ccccc3)[C@]3(O)C[C@H](OC(=O)[C@H](O)[C@@H](NC(=O)c4ccccc4)c4ccccc4)C(C)=C1C3(C)C)[C@]1(OC(C)=O)CO[C@@H]1C[C@@H]2O [PACLITAXEL]; experiment: as above; settings: exposure time: 5 days; dose range 0.5-1000 nM
Outline: as §1

[7] = compound: CC(=O)NCC(=O)N1[C@@H]2CC[C@H]1c1ccc(Nc3ncc(C(F)(F)F)c(NC4CCC4)n3)cc12; experiment: as above; settings: exposure time: 5 days; dose range 0.5-1000 nM
Outline: as §1

[8] = compound: T6, O=C(O)C1(C(=O)O)CCC1.[NH2-].[NH2-].[Pt+2] [CARBOPLATIN]; experiment: as above; settings: exposure time: 5 days; dose range 0.5-1000 nM
Outline: as §1

[9] = compound: T7, Cc1ccc(-c2cc(C(F)(F)F)nn2-c2ccc(S(N)(=O)=O)cc2)cc1 [CELECOXIB]; experiment: as above; settings: exposure time: 5 days; dose range 0.5-1000 nM
Outline: as §1

[10] = compound: T1, YM155; experiment: surviving fraction relative to DMSO-only wells; higher = less growth inhibition; settings: exposure time: 5 days
Outline: (§2)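 Inhibitors at 0.5, 1, 5, 10, 50, 100, 500 and 1000 nM were applied continuously for five days to tumour cell lines seeded in log phase at 250–500 cells per well in 384-well plates 24 hours earlier. Viability was measured by CellTiter-Glo luminescence and expressed as surviving fraction relative to the median of DMSO-only wells. Luminescence was taken after 10 minutes at room temperature.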

[11] = compound: T2, OSI-906; experiment: as above; settings: exposure time: 5 days
Outline: as §2

[12] = compound: CC(=O)c1c(C)c2cnc(Nc3ccc(N4CCNCC4)cn3)nc2n(C2CCCC2)c1=O; experiment: as above; settings: exposure time: 5 days
Outline: as §2

[13] = compound: T3, GEFITINIB; experiment: as above; settings: exposure time: 5 days
Outline: as §2

[14] = compound: T4, CAMPTOTHECIN; experiment: as above; settings: exposure time: 5 days
Outline: as §2

[15] = compound: T5, PACLITAXEL; experiment: as above; settings: exposure time: 5 days
Outline: as §2

[16] = compound: CC(=O)NCC(=O)N1[C@@H]2CC[C@H]1c1ccc(Nc3ncc(C(F)(F)F)c(NC4CCC4)n3)cc12; experiment: as above; settings: exposure time: 5 days
Outline: as §2

[17] = compound: T6, CARBOPLATIN; experiment: as above; settings: exposure time: 5 days
Outline: as §2

[18] = compound: T7, CELECOXIB; experiment: as above; settings: exposure time: 5 days
Outline: as §2

HCT15 LARGE INTESTINE
area under dose-response curve [1]: 2.03 | area under dose-response curve [2]: 2.9 | area under dose-response curve [3]: 3.59 | area under dose-response curve [4]: 3.44 | area under dose-response curve [5]: 0.543 | area under dose-response curve [6]: 1.76 | area under dose-response curve [7]: 2.05 | area under dose-response curve [8]: 3.51 | area under dose-response curve [9]: 3.49 | surviving fraction ([10]; 0.5 nM): 0.916 ± 0.056 | surviving fraction ([10]; 1 nM): 1.01 ± 0.051 | surviving fraction ([10]; 5 nM): 0.975 ± 0.017 | surviving fraction ([10]; 10 nM): 0.974 ± 0.029 | surviving fraction ([10]; 50 nM): 0.467 ± 0.028 | surviving fraction ([10]; 100 nM): 0.185 ± 0.029 | surviving fraction ([10]; 500 nM): 0.061 ± 0.0027 | surviving fraction ([10]; 1000 nM): 0.0557 ± 0.0031 | surviving fraction ([11]; 0.5 nM): 0.829 ± 0.073 | surviving fraction ([11]; 1 nM): 0.82 ± 0.048 | surviving fraction ([11]; 5 nM): 0.811 ± 0.069 | surviving fraction ([11]; 10 nM): 0.871 ± 0.086 | surviving fraction ([11]; 50 nM): 0.929 ± 0.061 | surviving fraction ([11]; 100 nM): 0.918 ± 0.023 | surviving fraction ([11]; 500 nM): 0.911 ± 0.073 | surviving fraction ([11]; 1000 nM): 0.921 ± 0.04 | surviving fraction ([12]; 0.5 nM): 1.09 ± 0.044 | surviving fraction ([12]; 1 nM): 1.05 ± 0.028 | surviving fraction ([12]; 5 nM): 1.06 ± 0.025 | surviving fraction ([12]; 10 nM): 1.03 ± 0.052 | surviving fraction ([12]; 50 nM): 1.14 ± 0.055 | surviving fraction ([12]; 100 nM): 1.1 ± 0.038 | surviving fraction ([12]; 500 nM): 1.12 ± 0.058 | surviving fraction ([12]; 1000 nM): 1.11 ± 0.035 | surviving fraction ([13]; 0.5 nM): 1.05 ± 0.033 | surviving fraction ([13]; 1 nM): 1.04 ± 0.017 | surviving fraction ([13]; 5 nM): 0.982 ± 0.025 | surviving fraction ([13]; 10 nM): 1.04 ± 0.054 | surviving fraction ([13]; 50 nM): 1.07 ± 0.04 | surviving fraction ([13]; 100 nM): 1.046 ± 0.0061 | surviving fraction ([13]; 500 nM): 1.04 ± 0.039 | surviving fraction ([13]; 1000 nM): 1.07 ± 0.052 | surviving fraction ([14]; 0.5 nM): 0.33 ± 0.031 | surviving fraction ([14]; 1 nM): 0.779 ± 0.041 | surviving fraction ([14]; 5 nM): 0.232 ± 0.083 | surviving fraction ([14]; 10 nM): 0.0333 ± 0.0047 | surviving fraction ([14]; 50 nM): 0.0227 ± 0.0038 | surviving fraction ([14]; 100 nM): 0.0337 ± 0.0038 | surviving fraction ([14]; 500 nM): 0.0207 ± 0.0021 | surviving fraction ([14]; 1000 nM): 0.0277 ± 0.0038 | surviving fraction ([15]; 0.5 nM): 1.01 ± 0.012 | surviving fraction ([15]; 1 nM): 1.07 ± 0.024 | surviving fraction ([15]; 5 nM): 0.95 ± 0.077 | surviving fraction ([15]; 10 nM): 0.861 ± 0.074 | surviving fraction ([15]; 50 nM): 0.255 ± 0.064 | surviving fraction ([15]; 100 nM): 0.0833 ± 0.0076 | surviving fraction ([15]; 500 nM): 0.04 ± 0.0036 | surviving fraction ([15]; 1000 nM): 0.0453 ± 0.0032 | surviving fraction ([16]; 0.5 nM): 0.969 ± 0.062 | surviving fraction ([16]; 1 nM): 0.9727 ± 0.009 | surviving fraction ([16]; 5 nM): 0.971 ± 0.037 | surviving fraction ([16]; 10 nM): 0.98 ± 0.036 | surviving fraction ([16]; 50 nM): 0.394 ± 0.11 | surviving fraction ([16]; 100 nM): 0.211 ± 0.034 | surviving fraction ([16]; 500 nM): 0.17 ± 0.041 | surviving fraction ([16]; 1000 nM): 0.0853 ± 0.0072 | surviving fraction ([17]; 0.5 nM): 1.1 ± 0.067 | surviving fraction ([17]; 1 nM): 1.04 ± 0.056 | surviving fraction ([17]; 5 nM): 1.04 ± 0.065 | surviving fraction ([17]; 10 nM): 1.03 ± 0.096 | surviving fraction ([17]; 50 nM): 1.06 ± 0.072 | surviving fraction ([17]; 100 nM): 1.09 ± 0.045 | surviving fraction ([17]; 500 nM): 1.06 ± 0.036 | surviving fraction ([17]; 1000 nM): 1.08 ± 0.04 | surviving fraction ([18]; 0.5 nM): 1.02 ± 0.062 | surviving fraction ([18]; 1 nM): 1.03 ± 0.031 | surviving fraction ([18]; 5 nM): 1.06 ± 0.039 | surviving fraction ([18]; 10 nM): 1.04 ± 0.022 | surviving fraction ([18]; 50 nM): 1.07 ± 0.061 | surviving fraction ([18]; 100 nM): 1.07 ± 0.077 | surviving fraction ([18]; 500 nM): 1.09 ± 0.053 | surviving fraction ([18]; 1000 nM): 1.1 ± 0.044

HS57T LUNG
area under dose-response curve [1]: 1.67 | area under dose-response curve [2]: 2.92 | area under dose-response curve [3]: 3.56 | area under dose-response curve [4]: 3.31 | area under dose-response curve [5]: 1.43 | area under dose-response curve [6]: 0.449 | area under dose-response curve [7]: 2.46 | area under dose-response curve [8]: 3.58 | area under dose-response curve [9]: 3.47
